Data on 31 molecules can be found in ChEMBL document CHEMBL1268975, “Building a MCHR1 homology model provides insight into the receptor-antagonist contacts that are important for the development of new anti-obesity agents” (Bioorg Med Chem, 2010).

Each structure is given as a SMILES string. pKi: −log10 of the molar value.

For one assay, the target named is Histamine H3 receptor (Homo sapiens, UniProt Q9Y5N1).
Chain of Histamine H3 receptor (Q9Y5N1 whole entry): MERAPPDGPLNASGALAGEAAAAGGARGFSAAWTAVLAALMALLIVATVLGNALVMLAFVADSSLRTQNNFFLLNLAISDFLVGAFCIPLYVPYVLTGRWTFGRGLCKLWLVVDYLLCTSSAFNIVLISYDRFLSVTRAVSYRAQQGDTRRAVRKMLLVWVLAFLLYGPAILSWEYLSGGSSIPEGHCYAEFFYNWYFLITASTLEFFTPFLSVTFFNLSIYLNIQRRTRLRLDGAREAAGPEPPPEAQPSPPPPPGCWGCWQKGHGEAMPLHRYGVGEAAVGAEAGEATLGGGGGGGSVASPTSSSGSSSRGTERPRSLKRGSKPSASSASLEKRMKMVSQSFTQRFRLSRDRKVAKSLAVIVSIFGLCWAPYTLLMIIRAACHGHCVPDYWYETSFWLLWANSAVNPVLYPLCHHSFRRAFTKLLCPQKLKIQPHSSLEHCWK
Test: not given
For `Cc1ccc(CN2CCC(NC(=O)N(CC(=O)C(C)(C)O)Cc3ccc(-c4cccc(C#N)c4)cc3)CC2)cc1`, the pKi (usually −log10 of the Ki, conventionally taken in molar units) is 5.55.

In turn, `Cc1ccc(CN2CCC(NC(=O)N(CC(=O)C(C)(C)O)Cc3ccc(-c4ccccc4)cc3)CC2)cc1` had a negative-log Ki (pKi) below 6.00.

Take `CCC(CO)(CO)NC(=O)N(CCC1CCN(Cc2ccc(C)cc2)CC1)Cc1ccc(-c2ccc(F)cc2)cc1`: the pKi was below 6.00.

In turn, `Cc1ccc(CN2CCC(CCN(Cc3ccc(-c4ccc(F)cc4)cc3)C(=O)NC(C)(C)CO)CC2)cc1` had a pKi below 6.00.

`COc1ccc(-c2ccc(CN(CCC3CCN(Cc4ccc(C)cc4)CC3)C(=O)NC(C)C)cc2)cc1` gave a pKi of 5.19. The molecule `COc1ccccc1-c1ccc(CN(CCC2CCN(Cc3ccc(C)cc3)CC2)C(=O)NC(C)C)cc1` gave a pKi below 6.00. For `Cc1ccc(CN2CCC(CCN(Cc3ccc(-c4cccc(C#N)c4)cc3)C(=O)NC(C)C)CC2)cc1`, the pKi is 6.07. Regarding `CC(=O)OCC(C)(C)NC(=O)N(CCC1CCN(Cc2ccc(C)cc2)CC1)Cc1ccc(-c2ccc(F)cc2)cc1`, the negative-log Ki (pKi) is 5.68. In turn, `CC(=O)OCC(C)(C)NC(=O)N(CCC1CCN(Cc2ccc(C)cc2)CC1)Cc1ccc(-c2cccc(C#N)c2)cc1` showed a negative-log Ki (pKi) of 5.79.

Molecule `CC(=O)OCC(C)(C)NC(=O)N(CCC1CCN(Cc2ccc(C)cc2)CC1)Cc1ccc(-c2ccccc2)cc1` had a pKi of 5.95.

`CCC(CO)(CO)NC(=O)N(CCC1CCN(Cc2ccc(C)cc2)CC1)Cc1ccc(-c2ccc(OC)cc2)cc1` gave a pKi of 6.05. The molecule `CCC(COC(C)=O)(COC(C)=O)NC(=O)N(CCC1CCN(Cc2ccc(C)cc2)CC1)Cc1ccc(-c2ccccc2)cc1` had a pKi of 6.09.

Molecule `COc1ccccc1-c1ccc(CN(CCC2CCN(Cc3ccc(C)cc3)CC2)C(=O)NC(C)(C)CO)cc1` gave a pKi of 5.18. This pKi is 0.91 log units lower than that of the molecule before. On the same count and under the same terms, the same measure for `COc1ccc(-c2ccc(CNC(=O)NC3CCN(Cc4ccc(C)cc4)CC3)cc2)cc1`: 5.29; for `COc1ccccc1-c1ccc(CNC(=O)NC2CCN(Cc3ccc(C)cc3)CC2)cc1`: below 6.00. For the molecule `Cc1ccc(CN2CCC(NC(=O)NCc3ccc(-c4cccc(C#N)c4)cc3)CC2)cc1`, the negative logarithm of the Ki (pKi) was below 6.00. In turn, `Cc1ccc(CN2CCC(NC(=O)N(CC(=O)C(C)(C)O)Cc3ccc(-c4ccc(F)cc4)cc3)CC2)cc1` showed a pKi of 5.85. Regarding `COc1ccc(-c2ccc(CN(CC(=O)C(C)(C)O)C(=O)NC3CCN(Cc4ccc(C)cc4)CC3)cc2)cc1`, the pKi is 6.24.

As to `CCC(CO)(CO)NC(=O)N(CCC1CCN(Cc2ccc(C)cc2)CC1)Cc1ccc(-c2ccccc2OC)cc1`, the negative-log Ki (pKi) was 5.67. This pKi is 0.57 log units lower than that of the molecule before. With `CCC(CO)(CO)NC(=O)N(CCC1CCN(Cc2ccc(C)cc2)CC1)Cc1ccc(-c2cccc(C#N)c2)cc1`, the pKi is 5.06. This pKi lies 0.61 log units lower than the previous one. Consider `CCC(COC(C)=O)(COC(C)=O)NC(=O)N(CCC1CCN(Cc2ccc(C)cc2)CC1)Cc1ccc(-c2ccc(OC)cc2)cc1`, for which the pKi was 6.11. For `COc1ccc(-c2ccc(CN(CCC3CCN(Cc4ccc(C)cc4)CC3)C(=O)NC(C)(C)COC(C)=O)cc2)cc1`, the pKi is 6.00. The molecule `COc1ccccc1-c1ccc(CN(CCC2CCN(Cc3ccc(C)cc3)CC2)C(=O)NC(C)(C)COC(C)=O)cc1` had a negative logarithm of the Ki (pKi) of 5.98.

Regarding `CCC(COC(C)=O)(COC(C)=O)NC(=O)N(CCC1CCN(Cc2ccc(C)cc2)CC1)Cc1ccc(-c2ccc(F)cc2)cc1`, the negative-log Ki (pKi) was 6.26. For `Cc1ccc(CN2CCC(CCN(Cc3ccc(-c4cccc(C#N)c4)cc3)C(=O)NC(C)(C)CO)CC2)cc1`, the pKi is 5.94. This pKi is 0.32 log units lower than that of the molecule before.

`Cc1ccc(CN2CCC(NC(=O)NCc3ccc(-c4ccccc4)cc3)CC2)cc1` gave a pKi below 6.00. Molecule `CCC(COC(C)=O)(COC(C)=O)NC(=O)N(CCC1CCN(Cc2ccc(C)cc2)CC1)Cc1ccc(-c2ccccc2OC)cc1` had a negative-log Ki (pKi) of 6.20. Regarding `CCC(COC(C)=O)(COC(C)=O)NC(=O)N(CCC1CCN(Cc2ccc(C)cc2)CC1)Cc1ccc(-c2cccc(C#N)c2)cc1`, the pKi is 5.88.

Turning to `COc1ccccc1-c1ccc(CN(CC(=O)C(C)(C)O)C(=O)NC2CCN(Cc3ccc(C)cc3)CC2)cc1`, the negative logarithm of the Ki (pKi) is 5.00. This pKi lies 0.88 log units lower than the previous one. Still for that read-out and setting: the same measure for `Cc1ccc(CN2CCC(CCN(Cc3ccc(-c4ccccc4)cc3)C(=O)NC(C)C)CC2)cc1`: below 6.00. As for `COc1ccc(-c2ccc(CN(CCC3CCN(Cc4ccc(C)cc4)CC3)C(=O)NC(C)(C)CO)cc2)cc1`, the pKi was 5.03.

The target of a further assay is Melanin-concentrating hormone receptor 1 (Homo sapiens, UniProt Q99705). In words: biochemical. Format: cell-based, HEK293.
Chain of Melanin-concentrating hormone receptor 1 (Q99705 whole entry): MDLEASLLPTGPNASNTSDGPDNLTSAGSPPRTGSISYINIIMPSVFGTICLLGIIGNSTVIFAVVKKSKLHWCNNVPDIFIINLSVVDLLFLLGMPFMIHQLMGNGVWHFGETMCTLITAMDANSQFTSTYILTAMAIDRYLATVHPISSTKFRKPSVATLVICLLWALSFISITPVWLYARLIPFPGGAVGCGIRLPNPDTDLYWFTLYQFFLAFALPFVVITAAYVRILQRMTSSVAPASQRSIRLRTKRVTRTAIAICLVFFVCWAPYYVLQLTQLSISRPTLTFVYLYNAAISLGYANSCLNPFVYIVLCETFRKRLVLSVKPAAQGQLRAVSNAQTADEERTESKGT
Description: Displacement of [3H]SNAP-7941 from human MCHR1 expressed in HEK cells
As to `Cc1ccc(CN2CCC(NC(=O)N(CC(=O)C(C)(C)O)Cc3ccc(-c4ccccc4)cc3)CC2)cc1`, the pKi was below 6.00. Same read-out and setting: then `COc1ccccc1-c1ccc(CN(CCC2CCN(Cc3ccc(C)cc3)CC2)C(=O)NC(C)C)cc1`, with below 6.00; and `COc1ccc(-c2ccc(CN(CC(=O)C(C)(C)O)C(=O)NC3CCN(Cc4ccc(C)cc4)CC3)cc2)cc1`, with below 6.00.
